Test results reported in patent publication US8580730B2, “Methods of treating lesional vestibular disorders by administering serotonin 5-HT3 receptor antagonists” ((INSERM) Institut National de la Sante et de la Recherche …, priority 2009, dated 2013).
“Also recorded” adds a separate entry of the source.

Key:
[1] = tested on: patients with suspicion of vestibular neuritis; experiment: Clinical study of vestibular deficit following acute vestibular neuritis (VNG, hospitalization, first walk); format: in vivo, human; conditions: 5 days treatment, ondansetron 8 mg/d vs metoclopramide 30 mg/d, n=10 each; for vestibular deficit, VNG at 1 month / vestibular deficit, early VNG (caloric tests): with methylprednisolone and valacyclovir; for vestibular deficit, VNG at 1 month: p=0.07; for vestibular deficit, early VNG (caloric tests): VNG 24 to 48 hours after beginning of deficit; for vestibular deficit, early VNG (caloric tests) / hospitalization duration: p=0.03; for time of first walk: p=0.001
Experimental: Methods: A clinical study conducted by the inventors at the Centre Hospitalier Universitaire (CHU) of Montpellier was carried out. Random clinical tests were performed on 20 patients. Patients were selected on the suspicion of vestibular neuritis started for less than 24 h before the hospitalization. The patients were all administered with methylprednisolone and valacyclovir, and either a 5 days treatment with Metoclopramide (30 mg/d, n=10) or with Ondansetron (8 mg/d, n=10). The functional evaluation was based on a early VNG (vestibulonystagmography) test (realized 24 to 48 hours after the beginning of the vestibular deficit) and a VNG at 1 month. The hospitalization duration and the date of the first walk were also recorded.

[2] = tested on: kainate-induced unilateral vestibular deficit; experiment: Behavioral evaluation of excitotoxically (kainate)-induced unilateral vestibular deficit; format: in vivo, rat; conditions: 4 mg/kg ip 1 h after transtympanic KA injection; 24 h after KA; vs untreated; p=0.022 Mann Whitney
Experimental: Validation of the restorative effect of said serotonin 5-HT3 antagonist is assessed by analysing the time course of arrival and removal of both excitotoxic lesions and ensuing vestibular deficit that occur within vestibular endorgans during intra auricular application of glutamate agonists. In the vestibular endorgans, massive application of kainic acid induces excitotoxic impairments of the neuronal network in the sensory organs (swelling of terminals that contact hair cells-Brugeaud et al., 2007). Histological studies of the expansion and reduction of excitotoxic lesions are undertaken using light and electron microscopy. Behavioural evaluation of vestibular deficit is undertaken using specific behavioural tests of the vestibular function. Under the paradigm developed in the rat, transtympanic application of kainic acid allows its diffusion into the inner ear. […] We evaluate the effect of KA injection using behavioral testing of vestibular deficits and histological quantification of the induced lesion. […] Animals were scored from range 0 to 4, respectively corresponding to normal behavior to maximal vestibular deficit. Rating 1 means that the behavior is not normal but no specific vestibular deficit is effectively determined; rating 2 corresponds to an identified but slight vestibular deficit and, rating 3 describes an identified and evident deficit. […]

[3] = tested on: hair cells and synaptic terminals of vestibular sensory epithelia (utricles); experiment: Histological and morphometric evaluation of kainate-induced vestibular lesions; format: in vivo, rat; conditions: 4 mg/kg ip 1 h after KA
Experimental: 1 h after KA injection, vestibular behavior of the animals was tested followed by ondansetron injection in the treatment group. […] Subsequently, the animals were tested at 2 h, 6 h, 24 h and 48 h after KA injection. Histological and morphometric analysis were performed at 2 and 24 hours after KA injection in the presence and absence of ondansetron treatment.
Preparation of semi-thin sections of sensory epithelia. We anesthetized female adult rats (Wistar; 200-220 g; n=3 for each treatment) with pentobarbital (0.4%). Animals were perfused transcardially with heparin PBS (0.01M) followed by a fixative solution (2% paraformaldehyde, 2.5% glutaraldehyde 1% picric acid, 5% sucrose) and samples post-fixed. […] Whole vestibular organs were postfixed in 2% OsO4, dehydrated, embedded in Araldite, and 1 μm thick sections were cut. A Nanozoomer Slide Scanner (RIO imaging, Montpellier, France) allowed the observation and scanning of samples mounted on slides.
Scans of semi-thin sections acquired with the Nanozoomer Slide Scanner were analyzed. Quantification of hair cells in utricles was done with Metamorph software (Universal Imaging). For each lesioned and contralateral ear, 3 sections distant of 20 to 25 μm each were analyzed. Thus, 400 cells for each epithelium were counted for each treatment on 3 different animals with the contralateral ear as pooled control. […] ANOVA was used to search for statistical difference, followed by Tukey Test to compare between treatments.

[4] = tested on: IDPN-induced bilateral vestibular deficit; experiment: Behavioral evaluation of bilateral (nitrile, IDPN)-induced vestibular deficit; format: in vivo, rat
Excerpt: Vestibular rating score was estimated as previously described (Brugeaud et al., 2007; Boadas-Vaello et al. 2005). Animals were scored from range 0 to 4, respectively corresponding to normal behavior to maximal vestibular deficit. Rating 1 means that the behavior is not normal but no specific vestibular deficit is effectively determined; rating 2 corresponds to an identified but slight vestibular deficit and, rating 3 describes an identified and evident deficit. Six different tests were sequentially scored and totalized to rate the vestibular deficit: 1—the head bobbing, when abnormal intermittent backward extension of the neck was observed; 2—the circling stereotyped movement ranging from none to compulsive circles around the animal hips; 3—the retro-pulsion, a typical backward walk reflecting vestibular disturbance; 4—the tail-hanging reflex, that normally induces a normal forelimb extension to reach the ground, results in the ventral bent of the body and grip of the tail when the vestibular deficit is maximal; 5—the contact-inhibition reflex normally leads animal hold to a metal grid in a subpine position to return when their back touch the ground; in case of vestibular deficit with a lack in the body orientation referential, this reflex is abolished, the animal stays griped to the grid in a supine position; 6—the air-righting reflex is necessary for animals to land on their feet when they fall from a supine position; vestibular dysfunction impairs this normal reversal, a maximal deficit leads the animal to land on its back when dropped from a height of 40 cm onto a foam cushion. Vestibular rating scores were expressed for each time point as a percentage of the t0 score.
Validation of the restorative effect of said serotonin 5-HT3 antagonist is also assessed on animal model of bilateral vestibular deficit by analysing the time course of arrival and removal of both excitotoxic lesions and ensuing vestibular deficit following intoxication with nitriles (IP injection—Seoane et al., J. Comp. Neurol. 2001, 439:385-399). […] Protection is assessed by administration of said serotonin 5-HT3 antagonist following different schedules (at the start of chronic intoxication; 24 and 48 h after).
IDPN (1 g/kg; ip) induces bilateral and permanent vestibular damage through destruction of the vestibular sensory epithelium. […] We assessed the effect of IDPN injection using behavioral testing of vestibular deficits. We evaluated the protective effect of single or double injections of ondansetron throughout the time course of injury progression following IDPN injection to determine the vestibuloprotective potential of ondansetron. […]

[5] = Stability of solution comprising ondansetron base; format: physicochemical; conditions: 1 month storage
Experimental: Chemical stability of the solution was also assessed: […]

Row | SMILES | vestibular deficit, VNG at 1 month [1] | vestibular deficit, VNG at 1 month ([1]; listed as M) | vestibular deficit, early VNG (caloric tests) [1] | vestibular deficit, early VNG (caloric tests) ([1]; listed as metoclopramid) | time of first walk [1] | hospitalization duration [1] | vestibular deficit, VNG at 1 month ([1]; listed as O) | vestibular deficits (vestibular rating score) at 24 hours [2] | number of not-determined hair cells ([3]; 24 hrs after the KA lesion, P<0.01) | number of type I hair cells ([3]; 24 hrs after the KA lesion, p<0.01) | maturation of neo-formed synaptic terminals (photonic microscopy) ([3]; 24 hrs after the lesion) | time course of increasing vestibular deficits ([4]; 1 dose 4 mg/kg ip 24 h after IDPN injection) | time course of increasing vestibular deficits ([4]; 1 dose 4 mg/kg ip 48 h after IDPN injection) | time course of increasing vestibular deficits ([4]; 1 dose 4 mg/kg ip simultaneously with IDPN 1 g/kg ip) | time course of increasing vestibular deficit / vestibular deficits at 54 h ([4]; 2 doses 4 mg/kg ip 24 and 48 hours after IDPN injection, at 54 h, 4 mg/kg) | chemical degradation with pH modification [5]
1 | CCN(CC)CCNC(=O)c1cc(Cl)c(N)cc1OC [Metoclopramide] | 63,4% | 63.4% | 84.38% | 84,38% | 2.25 days | 4.5 days |  |  |  |  |  |  |  |  |  | 
2 | Cc1nccn1CC1CCc2c(c3ccccc3n2C)C1=O (centres unmarked) [Ondansetron, 1,2,3,9-tetrahydro-9-methyl-3-[(2-methyl-1H-imidazol-1-yl)methyl]-4H-carbazol-4-one] | 43,0% |  | 56,53% |  | 1.25 days | 2.88 days | 43% | significantly reduced | significantly reduced | significantly increased | seemed to potentiate | not significantly altered | not significantly altered | not significantly altered | significant modification; also recorded: significantly less severe | not associated to significant chemical degradation
